According to patent US20190357538A1, “An Antifungal Composition Comprising Natamycin and C4-C22 Fatty Acids, Monoglycerides of These Fatty Acids and/or Derivatives of These Fatty Acids” (Arec Crop Protection B.V., priority 2015, published 2019):
Structures can show the parent of a compound that is named as a salt.

Key:
[1] = tested on: Fusarium oxysporum f. sp. cubense; assay: in vitro 96-well microtiter plate assay, visible mould development; format: cell-based; conditions: substance alone
[2] = tested on: Saccharomyces cerevisiae; assay: filter disc inhibition zone on PDA Petri dishes (145 mm), Example 2; format: cell-based; conditions: after 16 h
Description: Saccharomyces cerevisiae (at least 10^5 cfu/ml) was distributed on Petri dishes with a diameter of 145 mm containing 30 ml Potato Dextrose Agar (PDA; Carl Roth; pH of about 6) using sterilized swabs. […] As controls, the effects of the fatty acid salts alone (without natamycin) were tested. Yeast growth was also measured after incubation on medium without natamycin and fatty acid salts. Following the application of a filter, Petri dishes were incubated upside down for 24 h in a refrigerator at 4° C. to allow diffusion of natamycin into the agar. After 24 h the filter discs were removed from the agar and the Petri dishes were incubated upside down in a stove at 30° C. […] After 16 h incubation in the stove the size of the inhibition zone was determined using a digital caliper gauge. The data are presented as square mm and are an average of four replicas.

[3] = tested on: Saccharomyces cerevisiae; assay: filter disc inhibition zone on Petri dishes (90 mm), Example 3; format: cell-based; conditions: for surface of inhibition zone: 90 mm dish, after 16 h
Description: Saccharomyces cerevisiae (at least 10^5 cfu/ml) was distributed on Petri dishes with a diameter of 145 mm containing 30 ml Potato Dextrose Agar (PDA; Carl Roth; pH of about 6) using sterilized swabs. Filter paper discs (Whatman, Antibiotic Assay Paper, grade AA) with a diameter of 6 mm were loaded with 40 μl of a solution of 3 mM natamycin (Chinonbio, China, 95%) plus 0, 0.03, 0.09, 0.3 or 0.9 mM of sodium salts of butanoic acid (Carl Roth >99%), caprylic acid (Carl Roth, >99.5%), palmitic acid (Sigma, sodium palmitate 98.5) or stearic acid (Carl Roth, sodium stearate 88-92%). As controls, the effects of the fatty acid salts alone (without natamycin) were tested. Yeast growth was also measured after incubation on medium without natamycin and fatty acid salts.
Following the application of a filter, Petri dishes were incubated upside down for 24 h in a refrigerator at 4° C. to allow diffusion of natamycin into the agar. After 24 h the filter discs were removed from the agar and the Petri dishes were incubated upside down in a stove at 30° C. […] After 16 h incubation in the stove the size of the inhibition zone was determined using a digital caliper gauge. The data are presented as square mm and are an average of four replicas.
The experiment was performed as described in example 2, except that the diameter of the petri dishes was 90 mm. Measurement of the inhibition zone was after 16 hours.

[4] = tested on: Saccharomyces cerevisiae; assay: filter disc inhibition zone on PDA Petri dishes (90 mm, 50 μL), Example 4; format: cell-based; conditions: 3 mM natamycin alone; after 16 h
Description: Saccharomyces cerevisiae (at least 10^5 cfu/mL) was distributed on Petri dishes with a diameter of 90 mm containing 10 ml PDA agar (Carl Roth, pH about 6) using sterilized swabs. Filter paper discs (Whatman) with a diameter of 6 mm were loaded with 50 μL of a solution containing a concentration of 3 mM natamycin plus 0.3 mM of a mixture of oleic acid sodium salt and stearic acid sodium salt in a 50/50 ratio (this mixture will be referred to as fatty acid mix). As controls, the effect of the fatty acid mix alone (without natamycin) was tested on yeast growth. Yeast growth was also determined after incubation on medium without both natamycin and fatty acid salts. The size of the inhibition zone is a result of the natamycin and/or fatty acid salts released from the sample disc. After 16 h of incubation in the stove the size of the inhibition zone was measured using a digital caliper gauge. The data are presented as square mm and are an average of four replicas.

[5] = tested on: Botrytis cinerea; assay: rot on wounded apples inoculated with Botrytis cinerea; format: in vivo; conditions: 3 mM natamycin; for Lesion area on apple fruits: 0 FA; for Antifungal activity (%): apple fruits
Source text: Tested fruit: apples cv Maribelle from organic origin/SKAL certified. SKAL is a semi-governmental Dutch organization that controls organic production in the Netherlands. Wounds of the apples were checked at day 5 and 7. A mixture of fatty acid sodium salts containing oleic acid sodium salt and stearic acid sodium salt in a 50/50 ratio was used in this experiment and will be referred to as fatty acid mix. Used pathogen: Botrytis cinerea spore-suspension containing 10^6 spores/ml. Application: The fruit peel of the apple was damaged with a cork borer, ø 4 mm and depth ˜0.5 cm into the fruit, with 2 wounds per apple. 40 microliter of a freshly prepared spore suspension of B. cinerea was applied by pipette onto each wound. Subsequently, the spore-suspension was allowed to air-dry for 4 hours. Then, 40 microliter of a treatment as presented in the list above was applied by pipette to each wound. All fruits were kept at room temperature (20° C.). Wounds of the apples were checked after 4 and 7 days of incubation. […] Replicates: All treatments for the apple experiment were performed on six individual apples with two wounds each resulting in 12 wounds per treatment.

[6] = saturation level of natamycin in water by HPLC; format: physicochemical
[7] = solubility of natamycin in aqueous composition (description); format: physicochemical; conditions: presence of fatty acids, monoglycerides and/or derivatives; pH between 5 and 9
[8] = 0.03 mM fatty acid salt without natamycin
[9] = 0.09 mM fatty acid salt without natamycin
[10] = 0.3 mM fatty acid salt without natamycin
[11] = 0.9 mM fatty acid salt without natamycin

## C[C@@H]1C/C=C/C=C/C=C/C=C/[C@H](O[C@@H]2O[C@H](C)[C@@H](O)[C@H](N)[C@@H]2O)C[C@@H]2O[C@](O)(C[C@@H](O)C[C@H]3O[C@@H]3/C=C/C(=O)O1)C[C@H](O)[C@H]2C(=O)O [Natamycin, natamycin]
[1]
  sensitivity of Fusarium oxysporum: > 7 µM
[2]; 3 mM natamycin, 0 mM fatty acid salt, 40 μl per disc
  surface of inhibition zone: 585 square mm
[3]; 3 mM natamycin, 0 mM caprylic acid salt
  surface of inhibition zone: 788 square mm
[4]
  Inhibition zone: 480 square mm
[5]; 5 days after inoculation
  Lesion area on apple fruits: 130 mm^2
[5]; 7 days after inoculation
  Lesion area on apple fruits: 308 mm^2
[5]; incubation 5 days
  Antifungal activity (%): 62%
[5]; incubation 7 days
  Antifungal activity (%): 50%
[6]; ratio natamycin:salts of oleic and stearic acid mix 1:0 (g:g), room temperature
  Dissolved natamycin in water: 46 mg/L
[6]; without addition of fatty acids
  level dissolved in water: about 46 ppm
[7]
  solubility of natamycin: increased

## CCCC(=O)O [butanoic acid-Na, butanoic acid]
[2]; [8]
  surface of inhibition zone: 0 square mm
[2]; [9]
  surface of inhibition zone: 0 square mm
[2]; [10]
  surface of inhibition zone: 0 square mm
[2]; [11]
  surface of inhibition zone: 0 square mm

## CCCCCCCC(=O)O [caprylic acid ammonium salt, caprylic acid]
[3]; caprylic acid salt 0.09, 0.3 and 0.9 mM with natamycin
  effect on natamycin-inhibited yeast growth: enhanced
[3]; without natamycin
  inhibition of growth of yeast by the salts themselves: did not inhibit

## CCCCCCCC(=O)O [caprylic acid potassium salt, caprylic acid]
[3]; 0.03 mM caprylic acid salt without natamycin
  surface of inhibition zone: 0 square mm
[3]; 0.09 mM caprylic acid salt without natamycin
  surface of inhibition zone: 0 square mm
[3]; 0.3 mM caprylic acid salt without natamycin
  surface of inhibition zone: 0 square mm
[3]; 0.9 mM caprylic acid salt without natamycin
  surface of inhibition zone: 0 square mm

## CCCCCCCC(=O)O [caprylic acid-Na, caprylic acid]
[2]; [8]
  surface of inhibition zone: 0 square mm
[2]; [9]
  surface of inhibition zone: 0 square mm
[2]; [10]
  surface of inhibition zone: 0 square mm
[2]; [11]
  surface of inhibition zone: 0 square mm

## CCCCCCCCCCCCCCCC(=O)[O-].[Na+] [palmitic acid-Na, sodium palmitate]
[2]; [8]
  surface of inhibition zone: 0 square mm
[2]; [9]
  surface of inhibition zone: 0 square mm
[2]; [10]
  surface of inhibition zone: 0 square mm
[2]; [11]
  surface of inhibition zone: 0 square mm

## CCCCCCCCCCCCCCCCCC(=O)[O-].[Na+] [stearic acid-Na, sodium stearate]
[2]; [8]
  surface of inhibition zone: 0 square mm
[2]; [9]
  surface of inhibition zone: 0 square mm
[2]; [10]
  surface of inhibition zone: 0 square mm
[2]; [11]
  surface of inhibition zone: 0 square mm
